Laboratory results published in ChEMBL document CHEMBL4428126, “Identification and Structural Characterization of Three New Metabolites of Bupropion in Humans” (ACS Med Chem Lett, 2016).

Key:
[1] = Drug metabolism in human liver cytosol assessed as formation of metabolites with m/z transitions of 258 to 184 at 10 uM preincubated for 5 mins followed by addition of NADPH measured after 20 mins by LC-MS/MS analysis; format: ADME, subcellular
[2] = Drug metabolism in human liver microsomes assessed as formation of metabolites with m/z transitions of 258 to 184 at 10 uM preincubated for 5 mins followed by addition of NADPH measured after 20 mins by LC-MS/MS analysis; format: ADME, Microsome
[3] = molecular target: T1, Cytochrome P450 2C19 (Homo sapiens, UniProt P33261); experiment: Drug metabolism assessed as recombinant CYP2C19 (unknown origin)-mediated erythro-4'-OH-bupropion formation at 1 uM preincubated for 5 mins followed by addition of NADPH measured after 20 mins by LC-MS/MS method; format: ADME; details: recombinant enzyme
T1 sequence (P33261 whole entry): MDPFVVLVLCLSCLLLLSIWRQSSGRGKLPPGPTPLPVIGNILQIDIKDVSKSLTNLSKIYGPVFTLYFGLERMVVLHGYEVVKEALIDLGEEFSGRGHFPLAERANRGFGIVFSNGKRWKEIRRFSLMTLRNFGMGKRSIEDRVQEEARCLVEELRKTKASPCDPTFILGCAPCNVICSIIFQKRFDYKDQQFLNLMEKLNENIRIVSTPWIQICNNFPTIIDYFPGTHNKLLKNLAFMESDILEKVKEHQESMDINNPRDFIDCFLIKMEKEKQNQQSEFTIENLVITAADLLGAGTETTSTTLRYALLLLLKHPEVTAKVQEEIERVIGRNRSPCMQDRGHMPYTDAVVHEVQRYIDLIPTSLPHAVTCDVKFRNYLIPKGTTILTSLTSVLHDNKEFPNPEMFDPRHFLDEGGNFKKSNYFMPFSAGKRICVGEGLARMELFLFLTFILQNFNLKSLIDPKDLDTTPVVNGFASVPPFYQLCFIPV

[4] = Drug level in human liver microsome treated with bupropion at 10 uM preincubated for 5 mins followed by addition of NADPH measured after 20 mins by LC-MS/MS analysis; format: ADME; details: microsomes
[5] = Drug recovery in urine of human treated with bupropion assessed as free drug level administered orally measured over steady state dosing interval; format: ADME, tissue-based; details: po
[6] = Drug recovery in urine of human treated with bupropion assessed as conjugated drug level administered orally measured over steady state dosing interval; format: ADME; details: po
[7] = molecular target: T1, Cytochrome P450 2C19; experiment: Drug metabolism assessed as recombinant CYP2C19 (unknown origin)-mediated threo-4'-OH-bupropion formation at 1 uM preincubated for 5 mins followed by addition of NADPH measured after 20 mins by LC-MS/MS method; format: ADME; details: recombinant enzyme
[8] = Drug metabolism in human liver microsomes assessed as hydroxylation of t-butyl group preincubated for 5 mins followed by addition of NADPH measured after 20 mins by LC-MS/MS analysis; format: ADME, Microsome
[9] = Drug level in human liver microsomes treated with 10 uM threohydrobupropion assessed as compound formation with m/z transitions of 258 to 184 preincubated for 5 mins followed by addition of NADPH measured after 20 mins by LC-MS/MS analysis; format: ADME, Microsome
[10] = Drug excretion in acid deconjugated urine of human subjects treated with 300 mg/day bupropion by LC/MS/MS analysis; format: ADME, tissue-based
[11] = Drug level in plasma of human subjects assessed as compound formation treated with 300 mg/day bupropion by LC/MS/MS analysis; format: ADME, cell-free
[12] = Drug metabolism in acid deconjugated urine of human subjects assessed as metabolite M4 formation at 300 mg/day by LC/MS/MS analysis; format: ADME, tissue-based
[13] = Drug level in human liver microsomes treated with threohydrobupropion-d9 assessed as hydroxylation of t-butyl group preincubated for 5 mins followed by addition of NADPH measured after 20 mins by LC-MS/MS analysis; format: ADME, Microsome
[14] = Drug level in human liver microsomes treated with 10 uM erythrohydrobupropion assessed as compound formation with m/z transitions of 258 to 184 preincubated for 5 mins followed by addition of NADPH measured after 20 mins by LC-MS/MS analysis; format: ADME, Microsome
[15] = Plasma concentration in human assessed as erythro-4'-OH-bupropion at 300 mg/day by LC/MS/MS analysis; format: ADME, cell-free
[16] = Drug excretion in human urine assessed as polar metabolites formation administered as single oral dosage; format: ADME, tissue-based
[17] = Drug recovery in human urine assessed as free drug level administered orally measured over steady state dosing interval; format: ADME, tissue-based; details: po
[18] = Drug recovery in human urine assessed as erythrohydrobupropion administered as single oral dosage; format: ADME, tissue-based
[19] = Drug recovery in human urine assessed as OH-bupropion administered as single oral dosage; format: ADME, tissue-based
[20] = Plasma concentration in human assessed as 4'-OH-bupropion at 300 mg/day by LC/MS/MS analysis; format: ADME, cell-free
[21] = Drug recovery in human urine administered as single oral dosage; format: ADME, tissue-based; details: read-out: Drug recovery
[22] = Drug metabolism in plasma of human subjects assessed as metabolite M7 formation at 300 mg/day by LC/MS/MS analysis; format: ADME, cell-free
[23] = Drug metabolism in plasma of human subjects assessed as metabolite M4 formation at 300 mg/day by LC/MS/MS analysis; format: ADME, cell-free
[24] = Drug metabolism in human liver microsomes assessed as NADPH-dependant 4'-OH-bupropion formation at 10 uM preincubated for 5 mins followed by addition of NADPH measured after 20 mins by LC-MS/MS analysis; format: ADME, Microsome
[25] = Drug metabolism in plasma of human subjects assessed as metabolite M6 formation at 300 mg/day by LC/MS/MS analysis; format: ADME, cell-free
[26] = Drug metabolism in human urine assessed as metabolite M2 formation at 300 mg/day by LC/MS/MS analysis-MS analysis; format: ADME, tissue-based
[27] = Drug metabolism in human plasma assessed as 4'-OH-bupropion formation at 300 mg/day by LC/MS/MS analysis; format: ADME, cell-free
[28] = Drug metabolism in human liver microsomes assessed as NADPH-dependant metabolite formation at 10 uM preincubated for 5 mins followed by addition of NADPH measured after 20 mins by LC-MS/MS analysis; format: ADME, Microsome
[29] = Drug metabolism in human plasma assessed as metabolite M2 formation at 300 mg/day by LC/MS/MS analysis; format: ADME, cell-free
[30] = molecular target: T1, Cytochrome P450 2C19; experiment: Drug metabolism assessed as recombinant CYP2C19 (unknown origin)-mediated 4'-OH-bupropion formation at 1 uM preincubated for 5 mins followed by addition of NADPH measured after 20 mins by LC-MS/MS method; format: ADME; details: recombinant enzyme
[31] = Drug excretion in human urine assessed as 4'-OH-bupropion formation at 300 mg/day by LC/MS/MS analysis; format: ADME, tissue-based
[32] = Drug recovery in human urine assessed as free and conjugated drug level administered orally measured over steady state dosing interval; format: ADME, tissue-based; details: po
[33] = Drug metabolism in acid deconjugated urine of human subjects assessed as metabolite M3 formation at 300 mg/day by LC/MS/MS analysis; format: ADME, tissue-based
[34] = Plasma concentration in human assessed as threo-4'-OH-bupropion at 300 mg/day by LC/MS/MS analysis; format: ADME, cell-free
[35] = Drug recovery in human urine assessed as conjugated drug level administered orally measured over steady state dosing interval; format: ADME, tissue-based; details: po
[36] = Drug metabolism in acid deconjugated urine of human subjects assessed as metabolite M7 formation at 300 mg/day by LC/MS/MS analysis; format: ADME, tissue-based
[37] = Drug excretion in human urine assessed as m-chlorohippuric acid administered as single oral dosage; format: ADME, tissue-based
[38] = Drug metabolism in acid deconjugated urine of human subjects assessed as metabolite M6 formation at 300 mg/day by LC/MS/MS analysis; format: ADME, tissue-based
[39] = Drug recovery in human urine assessed as threohydrobupropion administered as single oral dosage; format: ADME, tissue-based

C[C@@H](NC(C)(C)C)[C@H](O)c1cccc(Cl)c1
Drug metabolism [1]: Metabolite_Notdetected
Drug metabolism [2]: Metabolite_Detected
Drug metabolism [3]: Metabolite_Detected
Drug metabolism [4]: Metabolite_Detected
Drug recovery [5]: 63 µmol
Drug recovery [6]: 22 µmol

C[C@@H](NC(C)(C)C)[C@@H](O)c1cccc(Cl)c1
Drug metabolism [1]: Metabolite_Notdetected
Drug metabolism [2]: Metabolite_Detected
Drug metabolism [4]: Metabolite_Detected
Drug metabolism [7]: Metabolite_Detected
Drug recovery [5]: 610 µmol
Drug recovery [6]: 250 µmol

[2H]C([2H])([2H])C(N[C@H](C)[C@@H](O)c1cccc(Cl)c1)(C([2H])([2H])[2H])C([2H])([2H])[2H]
Drug metabolism [8]: Metabolite_Notdetected

C[C@@H](NC(C)(C)C)[C@H](O)c1ccc(O)c(Cl)c1
Drug metabolism [2]: Metabolite_Detected
Drug metabolism [9]: Metabolite_Detected
Drug excretion [10]: Metabolite_Detected
Drug metabolism [11]: Metabolite_Detected
Drug recovery [5]: 3.3 µmol
Drug metabolism [12]: Metabolite_Detected
Drug metabolism [13]: Metabolite_Detected
Drug recovery [6]: 160 µmol

CC(NC(C)(C)C)C(=O)c1ccc(O)c(Cl)c1 (stereo not given)
Drug metabolism [1]: Metabolite_Notdetected
Drug excretion [10]: Metabolite_Detected
Drug metabolism [4]: Metabolite_Detected
Drug recovery [5]: 0.3 µmol
Drug recovery [6]: 29 µmol

CC1NC(C)(C)COC1(O)c1cccc(Cl)c1 (stereo not given)
Drug metabolism [1]: Metabolite_Notdetected
Drug metabolism [2]: Metabolite_Notdetected
Drug metabolism [4]: Metabolite_Detected
Drug recovery [5]: 77 µmol
Drug recovery [6]: 110 µmol

O=C(O)CNC(=O)c1cccc(Cl)c1
Drug recovery [5]: 167 µmol

C[C@@H](NC(C)(C)C)[C@@H](O)c1ccc(O)c(Cl)c1 (relative stereo)
Drug metabolism [2]: Metabolite_Detected
Drug excretion [10]: Metabolite_Detected
Drug metabolism [14]: Metabolite_Detected
Drug metabolism [11]: Metabolite_Detected
Drug recovery [5]: 0.9 µmol
Drug metabolism [12]: Metabolite_Detected
Drug recovery [6]: 200 µmol

CC(NC(C)(C)C)C(=O)c1cccc(Cl)c1 (stereo not given) [BUPROPION]
concentration [15]: 33 nM
Drug excretion [16]: 36 %ID
Drug recovery [17]: 59 µmol
Drug recovery [18]: 23 %ID
Drug recovery [19]: 23 %ID
concentration [20]: 12 nM
dose excreted [21]: 23%
Drug metabolism [22]: Metabolite_Detected
Drug metabolism [23]: Metabolite_Detected
Drug metabolism [24]: Metabolite_Detected
Drug metabolism [25]: Metabolite_Detected
Drug metabolism [26]: Metabolite_Notdetected
Drug metabolism [27]: Metabolite_Detected
Drug metabolism [28]: Metabolite_Detected
Drug metabolism [29]: Metabolite_Notdetected
Drug metabolism [30]: Metabolite_Detected
Drug excretion [31]: Metabolite_Detected
Drug recovery [32]: 1.4 %ID
Drug metabolism [33]: Metabolite_Detected
Drug metabolism [12]: Metabolite_Detected
concentration [34]: 7 nM
Drug recovery [35]: 6.5 µmol
Drug metabolism [36]: Metabolite_Detected
Drug excretion [37]: 22 %ID
Drug metabolism [38]: Metabolite_Detected
Drug recovery [39]: 23 %ID
